Assay results: US20240197733A1, “A GABA RECEPTOR MODULATOR FOR USE IN THE TREATMENT OF PAIN” (SANIONA A/S, priority 2021, published 2024)

What was measured:
[1] = tested on: electrocutaneous stimulation-induced facial pain rodent model; experiment: ES-induced facial pain model, cold thermal allodynia (acetone test), acute treatment; assay type: in vivo, Sprague-Dawley rats
Excerpt: The electrocutaneous stimulation-induced facial pain rodent model is a reproducible orofacial pain model in which depilated cheek area of rats are repeatedly subjected to electrical stimulation. Repeated electrical stimulation at low intensities produces craniofacial pain that mimics the behavioral characteristics of TN such as development of mechanical and thermal allodynia at cheeks despite no visible edema, swelling or excessive injury and tissue damage.
Male wild type, Sprague-Dawley rats (Charles River Laboratories) born in-house at AfaSci Research Laboratory between May 24, 2020 to May 28, 2020. At approximately 3 months of age (approximately 350 g-450 g body weight) the rats were deemed suitable for the electrocutaneous stimulation-induced facial pain model. Prior to the experiment, the rats were maintained in group cages (3 rats per cage) in a controlled environment (temperature: 21.5±4.5° C./relative humidity: 35-55%) under a standard 12 h light/12 h dark lighting cycle (lights on at 06:00).
The required quantity of the compounds are weighed and dissolved in 100% DMSO in a volume amounting to 5% of the total volume while placed on a stirrer. The weight of the compounds refers to the free base weights. […]
Second baseline measurement was carried out similarly to day 1. […] For each animal, the average of the two baseline nociceptive measurements were calculated within each pain modality (mechanical, heat- and cold pain), and used as baseline (“Baseline” point on figures).
Similarly, to day 1- and 2, all rats were subjected to acclimatization to test equipment and decapicone followed by measurements of ES-induced facial mechanical- heat- and cold allodynia (“0” time point on figures). […] Compound 1, vehicle and Carbamazepine was administered perorally in doses of 1, 3, and 10 mg/kg (Compound 1) or 30 mg/kg (carbamazepine) and drug effects on pain thresholds were evaluated 2- and 4 hours after drug administration by assessment of mechanical- (von Frey) and thermal hypersensitivity (heat- and cold stimulation respectively). […]

[2] = target: GABAA receptors containing the a2 subunit (Homo sapiens, UniProt P18507+P47869); conditions: cited from earlier work
Chain of GABAA receptors containing the a2 subunit (P47869 29-451): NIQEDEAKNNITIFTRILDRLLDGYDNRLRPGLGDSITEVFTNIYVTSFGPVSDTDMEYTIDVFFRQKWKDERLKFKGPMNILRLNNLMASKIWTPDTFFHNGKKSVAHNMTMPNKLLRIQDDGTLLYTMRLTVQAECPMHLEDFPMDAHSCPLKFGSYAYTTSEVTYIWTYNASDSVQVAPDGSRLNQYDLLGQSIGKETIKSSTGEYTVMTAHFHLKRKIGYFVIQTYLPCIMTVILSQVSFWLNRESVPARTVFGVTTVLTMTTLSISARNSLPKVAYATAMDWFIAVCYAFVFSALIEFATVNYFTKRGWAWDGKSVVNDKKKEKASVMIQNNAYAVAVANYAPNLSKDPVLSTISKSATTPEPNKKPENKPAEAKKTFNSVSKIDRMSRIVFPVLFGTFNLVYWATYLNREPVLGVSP
Chain of GABAA receptors containing the a2 subunit (P47870 25-512 partner limits assumed): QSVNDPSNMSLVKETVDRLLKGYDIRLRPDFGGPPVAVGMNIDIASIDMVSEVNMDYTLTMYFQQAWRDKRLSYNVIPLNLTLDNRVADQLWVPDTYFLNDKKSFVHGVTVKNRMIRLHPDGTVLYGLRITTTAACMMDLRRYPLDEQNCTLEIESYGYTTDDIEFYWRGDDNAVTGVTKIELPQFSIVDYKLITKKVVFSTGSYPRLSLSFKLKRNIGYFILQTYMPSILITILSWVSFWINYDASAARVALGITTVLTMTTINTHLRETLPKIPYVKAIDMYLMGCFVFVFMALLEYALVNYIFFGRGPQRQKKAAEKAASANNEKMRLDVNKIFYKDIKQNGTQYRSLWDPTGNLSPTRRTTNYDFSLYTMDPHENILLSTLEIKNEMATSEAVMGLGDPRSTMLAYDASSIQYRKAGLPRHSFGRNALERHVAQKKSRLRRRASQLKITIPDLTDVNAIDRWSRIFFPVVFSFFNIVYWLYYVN
Chain of GABAA receptors containing the a2 subunit (P18507 40-475): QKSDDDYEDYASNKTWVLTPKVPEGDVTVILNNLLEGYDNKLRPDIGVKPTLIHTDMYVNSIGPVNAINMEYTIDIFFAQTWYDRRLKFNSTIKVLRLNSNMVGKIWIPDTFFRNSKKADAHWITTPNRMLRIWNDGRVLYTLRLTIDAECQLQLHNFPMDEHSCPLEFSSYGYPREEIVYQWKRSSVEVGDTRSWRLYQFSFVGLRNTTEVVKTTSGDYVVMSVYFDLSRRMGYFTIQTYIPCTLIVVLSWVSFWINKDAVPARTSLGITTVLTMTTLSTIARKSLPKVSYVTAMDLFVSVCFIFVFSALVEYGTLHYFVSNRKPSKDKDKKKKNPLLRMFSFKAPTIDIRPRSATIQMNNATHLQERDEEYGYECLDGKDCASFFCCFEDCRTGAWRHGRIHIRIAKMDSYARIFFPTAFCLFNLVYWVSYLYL

[3] = target: GABAA receptors containing the a3 subunit (Homo sapiens, UniProt P18507+P34903); conditions: cited from earlier work
Chain of GABAA receptors containing the a3 subunit (P34903 29-492): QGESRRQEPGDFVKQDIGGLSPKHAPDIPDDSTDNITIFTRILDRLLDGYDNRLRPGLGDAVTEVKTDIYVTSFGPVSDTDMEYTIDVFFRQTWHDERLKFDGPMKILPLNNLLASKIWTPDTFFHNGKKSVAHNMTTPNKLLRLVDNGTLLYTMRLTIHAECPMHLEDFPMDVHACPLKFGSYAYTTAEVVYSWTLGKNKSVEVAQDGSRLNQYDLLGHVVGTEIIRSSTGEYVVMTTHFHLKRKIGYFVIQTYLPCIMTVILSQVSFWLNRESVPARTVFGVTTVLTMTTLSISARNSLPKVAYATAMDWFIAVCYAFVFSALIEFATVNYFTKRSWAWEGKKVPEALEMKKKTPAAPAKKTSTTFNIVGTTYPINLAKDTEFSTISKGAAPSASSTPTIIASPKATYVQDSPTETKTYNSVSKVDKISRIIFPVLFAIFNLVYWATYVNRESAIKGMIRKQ
Chain of GABAA receptors containing the a3 subunit (P47870 25-512 partner limits assumed): as the sequence (P47870 25-512 partner limits assumed) above
Chain of GABAA receptors containing the a3 subunit (P18507 40-475): as the sequence (P18507 40-475) above

[4] = tested on: electrocutaneous stimulation-induced facial pain rodent model; experiment: ES-induced facial pain model, mechanical allodynia (Von Frey), prophylactic and acute treatment; assay type: in vivo, Sprague-Dawley rats
Experimental: Mechanical pain thresholds were assessed by measuring each rat's facial withdrawal threshold (g) in response to von Frey monofilaments (BioSeb). Starting monofilament: 3.84 (0.6 g), 50% facial withdrawal threshold was interpolated using the up-down method (Chaplan S R et al., 1994). Cutoff monofilament was 4.56 (4 g). Unless stated otherwise, the same materials, methods, and provisions of Example 1 were applied to Example 2. The required quantity of the compound is weighed and dissolved in 100% DMSO in a volume amounting to 5% of the total volume while placed on a stirrer. The weight of the compounds refers to the free base weights. Once the solution becomes clear/transparent, the remaining volume of the vehicle is added (30% HPBCD prepared in MQ water) to final concentrations of 0.03, 0.1, and 0.3 mg/ml for Compound 1. The solutions are kept on a stirrer before- and during administration of the compounds to the animals. The experimenter assessing the behavioral responses to drug administration is blinded to the drug treatment to the animals. Each treatment group is coded according the scheme below: • A. Vehicle (5% DMSO+30% HPBCD): 10 ml/kg • B. Compound 1: 0.3 mg/kg • C. Compound 1: 1 mg/kg • D. Compound 1: 3 mg/kg • F. Compound 1: 3 mg/kg—acute Second baseline measurement was carried out similarly to day 1, For each animal, the average of the two baseline nociceptive measurements was calculated within each pain modality (mechanical, heat- and cold pain), and used as baseline (“Baseline” point on figures). Then all rats in the above respective group (A-D) are given treated as mentioned. Group F received vehicle treatment. Treatment is continued once daily to each group same as Day 2 All rats were treated with respective treatment as per day 3-7. After 1 hr of treatment, each rat was subjected to 1 hr of electrocutaneous stimulation at depilated cheek (0.4 mA intensity, 10 ms duration, 1 s inter-pulse interval). Similar to day 1- and 2, all rats were acclimatized to test equipment followed by measurements of ES-induced facial mechanical- heat- and cold allodynia (“0” time point on figures). After measurement of hypersensitivity threshold, rats from group A-D received the vehicle and three doses of Compound 1 as mentioned above while group F received single acute dose of 3 mg/kg of Compound 1. Treatment effects on pain thresholds were evaluated 2- and 4 hours after administration by assessing mechanical- (Von Frey) and thermal (heat and cold) withdrawal threshold.

COc1ncc(-c2cccc(-n3cnc4cc(C(C)(C)O)cnc43)c2)c(OC)n1 [Compound 1, 2-(3-(3-(2,4-dimethoxypyrimidin-5-yl)phenyl)-3H-imidazo[4,5-b]pyridin-6-yl)propan-2-ol]
effect on cold pain threshold (acetone test, facial withdrawal latency) vs vehicle ([1]; 10 mg/kg po, 2 and 4 hours of treatment, p<0.001 and p<0.0001 vs vehicle): significant enhancement of the cold pain threshold | minimum effective dose, cold allodynia (acetone test) ([1]; po, p<0.01 after 2 and 4 hrs of dosing vs vehicle): 3 mg/kg | positive allosteric modulation of GABAA receptors containing the a2 subunit [2]: to a minor extent | modulation of GABAA receptors containing the a3 subunit [3]: positive allosteric modulator (PAM) | effect size on mechanical allodynia, acute treatment compared to prophylactic treated animals ([4]; acute 3 mg/kg po): smaller | effect on established mechanical allodynia vs vehicle ([4]; acute 3 mg/kg po on day 9, p<0.01 post 2 hrs, p<0.001 post 4 hrs): reversed the mechanical allodynia | effect on established mechanical allodynia vs vehicle ([4]; prophylactic 0.3 mg/kg po plus additional dose on day 9, p>0.05 post 2 hrs, p<0.01 post 4 hrs): reversed the mechanical allodynia dose dependently | effect on established mechanical allodynia vs vehicle ([4]; prophylactic 1 mg/kg po plus additional dose on day 9, p<0.01 post 2 hrs, p<0.0001 post 4 hrs): reversed the mechanical allodynia dose dependently | development of mechanical allodynia vs vehicle ([4]; prophylactic 3 mg/kg po once daily for 7 days, day 9 at 0 time, p<0.001 vs vehicle): significantly reduced the development of allodynia | effect on established mechanical allodynia vs vehicle ([4]; prophylactic 3 mg/kg po plus additional dose on day 9, p<0.0001 post 2 hrs and post 4 hrs): reversed the mechanical allodynia dose dependently
